From US20260159512A1, “BCAT2 INHIBITORS” (AGIOS PHARMACEUTICALS, INC., priority 2021, published 2026)
Values joined by “and” are separate entries in the source; they are usually repeats but may differ in a detail not shown here. Equal values may be shown once.

What was measured:
Details in all cases: average where tested multiple times
hBCAT1 = target: T1, hBCAT1 (Homo sapiens, UniProt P54687); test: BCAT1 in vitro enzyme inhibition assay (resazurin/diaphorase-coupled fluorescence); type: biochemical
T1 sequence (P54687 1-386): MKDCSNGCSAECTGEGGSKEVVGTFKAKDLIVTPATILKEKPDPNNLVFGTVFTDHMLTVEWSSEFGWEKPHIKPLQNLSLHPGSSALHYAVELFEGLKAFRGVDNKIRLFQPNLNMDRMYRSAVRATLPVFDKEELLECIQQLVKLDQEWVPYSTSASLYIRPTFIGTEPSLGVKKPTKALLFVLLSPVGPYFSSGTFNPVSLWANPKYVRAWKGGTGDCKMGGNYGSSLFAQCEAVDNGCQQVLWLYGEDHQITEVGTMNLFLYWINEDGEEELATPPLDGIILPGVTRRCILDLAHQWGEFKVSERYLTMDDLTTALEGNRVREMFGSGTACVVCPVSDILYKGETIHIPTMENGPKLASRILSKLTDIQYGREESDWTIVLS
Summary of the method: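 Human BCAT1 activity read by resazurin/diaphorase-coupled fluorescence. Compounds added from 50× DMSO stocks at 1:50, giving 10-point 3-fold titrations from 100 μM top final concentration. Run in technical duplicate; repeat tests averaged.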

BCAT2 [1] = target: T2, BCAT2 (Homo sapiens, UniProt O15382); test: BCAT2 in vitro cell inhibition using engineered A549 cells (KMV cell assay, 13C6-KMV by LC-MS/MS); type: cell-based; set-up: The result was an engineered A549 cell line that expressed endogenous BCAT2; endogenous in cells; host or cells: A549 cells with MUT and BCAT1 knocked out by CRISPR/CAS9; key to BCAT2 Cell Inhibition: A: less than or equal to 0.100 μM; B: greater than 0.100 and less than or equal to 0.500 μM; C: greater than 0.500 and less than or equal to 1.000 μM; d: greater than 1.000 μM; E: no fit
T2 sequence (O15382 28-392): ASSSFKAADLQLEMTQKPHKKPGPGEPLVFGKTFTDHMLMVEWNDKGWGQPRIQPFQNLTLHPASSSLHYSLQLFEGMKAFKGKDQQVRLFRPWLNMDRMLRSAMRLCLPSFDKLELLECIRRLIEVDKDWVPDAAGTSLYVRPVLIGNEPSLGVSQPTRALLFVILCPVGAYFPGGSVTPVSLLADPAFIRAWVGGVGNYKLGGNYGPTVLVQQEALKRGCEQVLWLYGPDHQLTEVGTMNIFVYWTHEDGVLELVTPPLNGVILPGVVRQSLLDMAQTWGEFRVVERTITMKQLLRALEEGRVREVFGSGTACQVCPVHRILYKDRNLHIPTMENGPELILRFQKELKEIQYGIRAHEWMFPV

BCAT2 [2] = target: T2, BCAT2; test: BCAT2 in vitro enzyme inhibition assay (resazurin/diaphorase-coupled fluorescence); type: biochemical
Summary of the method: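 Coupled fluorescence readout: glutamate formed from L-leucine/α-ketoglutarate transamination drives GDH/NAD/diaphorase reduction of resazurin (Ex 540/Em 590). Human BCAT2 was first exposed 1 h at room temperature to compound, top final 100 μM in 3-fold, 10-point series; substrate reaction ran 1 h before SDS quench, in technical duplicate with DMSO max and enzyme-free min controls.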

Work on `O=C(N[C@H]1CCC[C@@H](n2c(-c3ccccc3F)nc3cnc(-c4ncco4)cc32)C1)c1ccc(Br)s1` [Example 7, 5-bromo-N-((1S,3R)-3-(2-(2-fluorophenyl)-6-(oxazol-2-yl)-1H-imidazo[4,5-c]pyridin-1-yl)cyclohexyl)thiophene-2-carboxamide] yielded an IC50 (hBCAT1) of less than 500 nM, an IC50 (BCAT2 [1]) of no more than 100 nM and an IC50 (BCAT2 [2]) of no more than 100 nM.
Work on `C#Cc1cnc(C(=O)N[C@H]2CCC[C@@H](n3c(-c4ccccc4F)nc4cnc(-c5ncco5)cc43)C2)s1` [Example 8, 5-ethynyl-N-((1S,3R)-3-(2-(2-fluorophenyl)-6-(oxazol-2-yl)-1H-imidazo[4,5-c]pyridin-1-yl)cyclohexyl)thiazole-2-carboxamide] yielded an IC50 (hBCAT1) of less than 500 nM, an IC50 (BCAT2 [1]) of no more than 100 nM and an IC50 (BCAT2 [2]) of no more than 100 nM.
With `O=C(N[C@H]1CCC[C@@H](n2c(-c3ccccn3)nc3cnc(-n4cncn4)cc32)C1)c1ccc(Br)s1` [Example 9, 5-bromo-N-((1S,3R)-3-(2-(pyridin-2-yl)-6-(1H-1,2,4-triazol-1-yl)-1H-imidazo[4,5-c]pyridin-1-yl)cyclohexyl)thiophene-2-carboxamide] the IC50 (hBCAT1) was 500 to 1000 nM, the IC50 (BCAT2 [1]) was ≤ 100 nM and 100 to 500 nM and the IC50 (BCAT2 [2]) was no more than 100 nM.
`O=C(N[C@H]1CCC[C@@H](n2c(-c3ccccn3)nc3cnc(-n4ccnn4)cc32)C1)c1ccc(Br)s1` [Example 10, 5-bromo-N-((1S,3R)-3-(2-(pyridin-2-yl)-6-(1H-1,2,3-triazol-1-yl)-1H-imidazo[4,5-c]pyridin-1-yl)cyclohexyl)thiophene-2-carboxamide] gave an IC50 (hBCAT1) of 1000 to 5000 nM, an IC50 (BCAT2 [1]) of 500 to 1000 nM and an IC50 (BCAT2 [2]) of no more than 100 nM.
With `O=C(N[C@H]1CCC[C@@H](n2c(-c3ccccn3)nc3cnc(-n4nccn4)cc32)C1)c1ccc(Br)s1` [Example 11, 5-bromo-N-((1S,3R)-3-(2-(pyridin-2-yl)-6-(2H-1,2,3-triazol-2-yl)-1H-imidazo[4,5-c]pyridin-1-yl)cyclohexyl)thiophene-2-carboxamide] the IC50 (hBCAT1) was less than 500 nM, the IC50 (BCAT2 [1]) was no more than 100 nM and the IC50 (BCAT2 [2]) was no more than 100 nM.
Molecule `O=C(N[C@H]1CCC[C@@H](n2c(-c3ncccc3F)nc3cnc(-n4ccnn4)cc32)C1)c1ccc(Br)s1` [Example 12, 5-bromo-N-((1S,3R)-3-(2-(3-fluoropyridin-2-yl)-6-(1H-1,2,3-triazol-1-yl)-1H-imidazo[4,5-c]pyridin-1-yl)cyclohexyl)thiophene-2-carboxamide] has an IC50 (hBCAT1) of less than 500 nM, an IC50 (BCAT2 [1]) of 100 to 500 nM and an IC50 (BCAT2 [2]) of no more than 100 nM.
Work on `O=C(N[C@H]1CCC[C@@H](n2c(-c3ncccc3F)nc3cnc(-n4nccn4)cc32)C1)c1ccc(Br)s1` [Example 13, 5-bromo-N-((1S,3R)-3-(2-(3-fluoropyridin-2-yl)-6-(2H-1,2,3-triazol-2-yl)-1H-imidazo[4,5-c]pyridin-1-yl)cyclohexyl)thiophene-2-carboxamide] yielded an IC50 (hBCAT1) of less than 500 nM, an IC50 (BCAT2 [1]) of no more than 100 nM and an IC50 (BCAT2 [2]) of no more than 100 nM.
`O=C(N[C@H]1CCC[C@@H](n2c(-c3ccccc3F)nc3cnc(-n4ccnn4)cc32)C1)c1ccc(Br)s1` [Example 14, 5-bromo-N-((1S,3R)-3-(2-(2-fluorophenyl)-6-(1H-1,2,3-triazol-1-yl)-1H-imidazo[4,5-c]pyridin-1-yl)cyclohexyl)thiophene-2-carboxamide] gave an IC50 (hBCAT1) of less than 500 nM, an IC50 (BCAT2 [1]) of no more than 100 nM and an IC50 (BCAT2 [2]) of no more than 100 nM.
With `O=C(N[C@H]1CCC[C@@H](n2c(-c3ccccc3F)nc3cnc(-n4nccn4)cc32)C1)c1ccc(Br)s1` [Example 15, 5-bromo-N-((1S,3R)-3-(2-(2-fluorophenyl)-6-(2H-1,2,3-triazol-2-yl)-1H-imidazo[4,5-c]pyridin-1-yl)cyclohexyl)thiophene-2-carboxamide] the IC50 (hBCAT1) was less than 500 nM, the IC50 (BCAT2 [1]) was no more than 100 nM and the IC50 (BCAT2 [2]) was no more than 100 nM.
With `O=C(N[C@H]1CCC[C@@H](n2c(-c3ncccc3F)nc3cnc(-n4cncn4)cc32)C1)c1ccc(Br)s1` [Example 16, 5-bromo-N-((1S,3R)-3-(2-(3-fluoropyridin-2-yl)-6-(1H-1,2,4-triazol-1-yl)-1H-imidazo[4,5-c]pyridin-1-yl)cyclohexyl)thiophene-2-carboxamide] the IC50 (hBCAT1) was less than 500 nM, the IC50 (BCAT2 [1]) was no more than 100 nM and the IC50 (BCAT2 [2]) was no more than 100 nM.
Molecule `Cc1cnc(-c2cc3c(cn2)nc(-c2ccccn2)n3[C@@H]2CCC[C@H](NC(=O)c3ccc(Br)s3)C2)o1` [Example 18, 5-bromo-N-((1S,3R)-3-(6-(5-methyloxazol-2-yl)-2-(pyridin-2-yl)-1H-imidazo[4,5-c]pyridin-1-yl)cyclohexyl)thiophene-2-carboxamide] has an IC50 (hBCAT1) of less than 500 nM, an IC50 (BCAT2 [1]) of no more than 100 nM and an IC50 (BCAT2 [2]) of no more than 100 nM.
For `O=C(N[C@H]1CCC[C@@H](n2c(-c3ccccn3)nc3cnc(-n4nccn4)cc32)C1)c1ncc(Br)s1` [Example 19, 5-bromo-N-((1S,3R)-3-(2-(pyridin-2-yl)-6-(2H-1,2,3-triazol-2-yl)-1H-imidazo[4,5-c]pyridin-1-yl)cyclohexyl)thiazole-2-carboxamide], the IC50 (hBCAT1) was less than 500 nM, the IC50 (BCAT2 [1]) was no more than 100 nM and the IC50 (BCAT2 [2]) was no more than 100 nM.
Work on `C#Cc1cnc(C(=O)N[C@H]2CCC[C@@H](n3c(-c4ccccn4)nc4cnc(-n5nccn5)cc43)C2)s1` [Example 20, 5-ethynyl-N-((1S,3R)-3-(2-(pyridin-2-yl)-6-(2H-1,2,3-triazol-2-yl)-1H-imidazo[4,5-c]pyridin-1-yl)cyclohexyl)thiazole-2-carboxamide] yielded an IC50 (hBCAT1) of less than 500 nM, an IC50 (BCAT2 [1]) of no more than 100 nM and an IC50 (BCAT2 [2]) of no more than 100 nM.
With `O=C(N[C@H]1CCC[C@@H](n2c(-c3ccccn3)nc3cnc(-n4nccn4)cc32)C1)c1ncc(C(F)F)s1` [Example 21, 5-(difluoromethyl)-N-((1S,3R)-3-(2-(pyridin-2-yl)-6-(2H-1,2,3-triazol-2-yl)-1H-imidazo[4,5-c]pyridin-1-yl)cyclohexyl)thiazole-2-carboxamide] the IC50 (hBCAT1) was 500 to 1000 nM, the IC50 (BCAT2 [1]) was 100 to 500 nM and the IC50 (BCAT2 [2]) was no more than 100 nM.
With `O=C(N[C@H]1CCC[C@@H](n2c(-c3ncccc3F)nc3cnc(-n4nccn4)cc32)C1)c1ncc(Br)s1` [Example 22, 5-bromo-N-((1S,3R)-3-(2-(3-fluoropyridin-2-yl)-6-(2H-1,2,3-triazol-2-yl)-1H-imidazo[4,5-c]pyridin-1-yl)cyclohexyl)thiazole-2-carboxamide] the IC50 (hBCAT1) was less than 500 nM, the IC50 (BCAT2 [1]) was no more than 100 nM and the IC50 (BCAT2 [2]) was no more than 100 nM.
In the case of `C#Cc1cnc(C(=O)N[C@H]2CCC[C@@H](n3c(-c4ncccc4F)nc4cnc(-n5nccn5)cc43)C2)s1` [Example 23, 5-ethynyl-N-((1S,3R)-3-(2-(3-fluoropyridin-2-yl)-6-(2H-1,2,3-triazol-2-yl)-1H-imidazo[4,5-c]pyridin-1-yl)cyclohexyl)thiazole-2-carboxamide], the IC50 (hBCAT1) is reported as less than 500 nM, the IC50 (BCAT2 [1]) is reported as no more than 100 nM and the IC50 (BCAT2 [2]) is reported as no more than 100 nM.
In the case of `O=C(N[C@H]1CCC[C@@H](n2c(-c3ncccc3F)nc3cnc(-n4nccn4)cc32)C1)c1ncc(C(F)F)s1` [Example 24, 5-(difluoromethyl)-N-((1S,3R)-3-(2-(3-fluoropyridin-2-yl)-6-(2H-1,2,3-triazol-2-yl)-1H-imidazo[4,5-c]pyridin-1-yl)cyclohexyl)thiazole-2-carboxamide], the IC50 (hBCAT1) is reported as less than 500 nM, the IC50 (BCAT2 [1]) is reported as no more than 100 nM and the IC50 (BCAT2 [2]) is reported as no more than 100 nM.
`O=C(N[C@H]1CCC[C@@H](n2c(-c3ccccc3F)nc3cnc(-n4nccn4)cc32)C1)c1ncc(C(F)F)s1` [Example 25, 5-(difluoromethyl)-N-((1S,3R)-3-(2-(2-fluorophenyl)-6-(2H-1,2,3-triazol-2-yl)-1H-imidazo[4,5-c]pyridin-1-yl)cyclohexyl)thiazole-2-carboxamide] gave an IC50 (hBCAT1) of less than 500 nM, an IC50 (BCAT2 [1]) of no more than 100 nM and an IC50 (BCAT2 [2]) of no more than 100 nM.
For `O=C(N[C@H]1CCC[C@@H](n2c(-c3ccccn3)nc3cnc(-n4cncn4)cc32)C1)c1ncc(C(F)F)s1` [Example 26, 5-(difluoromethyl)-N-((1S,3R)-3-(2-(pyridin-2-yl)-6-(1H-1,2,4-triazol-1-yl)-1H-imidazo[4,5-c]pyridin-1-yl)cyclohexyl)thiazole-2-carboxamide], the IC50 (hBCAT1) was greater than 5000 nM, the “BCAT2 Cell Inhibition” value (BCAT2 [1]) was “E” and the IC50 (BCAT2 [2]) was 100 to 500 nM.
